Experimental data taken from PubChem BioAssay (NCI).
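The compound was tested at five concentrations on cells cultured in 96-well plates, with a 48-hour exposure period. Definition used: TGI = concentration required for complete inhibition of growth.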

Columns and labels:
Assay in all cases: DTP human tumour cell line panel, 48 h
K-562 leukemia = tested on: K-562 leukemia
SK-MEL-5 melanoma = tested on: SK-MEL-5 melanoma
UACC-257 melanoma = tested on: UACC-257 melanoma
HCT-15 colon = tested on: HCT-15 colon
RPMI-8226 leukemia = tested on: RPMI-8226 leukemia
MDA-MB-435 = tested on: MDA-MB-435
SF-295 CNS = tested on: SF-295 CNS
NCI-H460 lung = tested on: NCI-H460 lung
SK-MEL-28 melanoma = tested on: SK-MEL-28 melanoma
OVCAR-4 ovarian = tested on: OVCAR-4 ovarian
TK-10 renal = tested on: TK-10 renal
OVCAR-5 ovarian = tested on: OVCAR-5 ovarian
HT29 colon = tested on: HT29 colon
SN12C renal = tested on: SN12C renal
A498 renal = tested on: A498 renal
ACHN renal = tested on: ACHN renal
PC-3 prostate = tested on: PC-3 prostate
HL-60(TB) leukemia = tested on: HL-60(TB) leukemia
NCI-H522 lung = tested on: NCI-H522 lung
COLO 205 colon = tested on: COLO 205 colon
786-0 renal = tested on: 786-0 renal
MALME-3M melanoma = tested on: MALME-3M melanoma
MDA-N = tested on: MDA-N
UACC-62 melanoma = tested on: UACC-62 melanoma
HOP-62 NSCLC = tested on: HOP-62 NSCLC
SK-MEL-2 melanoma = tested on: SK-MEL-2 melanoma
BT-549 breast = tested on: BT-549 breast
SK-OV-3 ovarian = tested on: SK-OV-3 ovarian
HCT-116 colon = tested on: HCT-116 colon
NCI-H23 lung = tested on: NCI-H23 lung
OVCAR-3 ovarian = tested on: OVCAR-3 ovarian
HCC-2998 colon = tested on: HCC-2998 colon
KM12 colon = tested on: KM12 colon
MOLT-4 leukemia = tested on: MOLT-4 leukemia
DU-145 prostate = tested on: DU-145 prostate
HOP-92 NSCLC = tested on: HOP-92 NSCLC
SF-268 CNS = tested on: SF-268 CNS
UO-31 renal = tested on: UO-31 renal
NCI/ADR-RES ovarian = tested on: NCI/ADR-RES ovarian
OVCAR-8 ovarian = tested on: OVCAR-8 ovarian
A549 NSCLC = tested on: A549 NSCLC
M14 melanoma = tested on: M14 melanoma
U251 CNS = tested on: U251 CNS
MCF7 breast = tested on: MCF7 breast
SW-620 colon = tested on: SW-620 colon
SNB-19 CNS = tested on: SNB-19 CNS
MDA-MB-231 breast = tested on: MDA-MB-231 breast
RXF 393 renal = tested on: RXF 393 renal
CCRF-CEM leukemia = tested on: CCRF-CEM leukemia
T-47D breast = tested on: T-47D breast
CAKI-1 renal = tested on: CAKI-1 renal
SF-539 CNS = tested on: SF-539 CNS
HS 578T breast = tested on: HS 578T breast
SNB-75 CNS = tested on: SNB-75 CNS
EKVX NSCLC = tested on: EKVX NSCLC
IGROV1 ovarian = tested on: IGROV1 ovarian
LOX IMVI melanoma = tested on: LOX IMVI melanoma
NCI-H226 lung = tested on: NCI-H226 lung

Structure (SMILES): Cc1ccc(-c2cc(-c3ccccc3)nc(N)n2)c(O)c1
- TGI (K-562 leukemia): > 100 µM
- TGI (SK-MEL-5 melanoma): > 100 µM
- TGI (UACC-257 melanoma): > 100 µM
- TGI (HCT-15 colon): > 100 µM
- TGI (RPMI-8226 leukemia): > 100 µM
- TGI (MDA-MB-435): > 100 µM
- TGI (SF-295 CNS): > 100 µM
- TGI (NCI-H460 lung): > 100 µM
- TGI (SK-MEL-28 melanoma): > 100 µM
- TGI (OVCAR-4 ovarian): > 100 µM
- TGI (TK-10 renal): > 100 µM
- TGI (OVCAR-5 ovarian): > 100 µM
- TGI (HT29 colon): > 100 µM
- TGI (SN12C renal): > 100 µM
- TGI (A498 renal): > 100 µM
- TGI (ACHN renal): > 100 µM
- TGI (PC-3 prostate): > 100 µM
- TGI (HL-60(TB) leukemia): > 100 µM
- TGI (NCI-H522 lung): > 100 µM
- TGI (COLO 205 colon): > 100 µM
- TGI (786-0 renal): > 100 µM
- TGI (MALME-3M melanoma): > 100 µM
- TGI (MDA-N): > 100 µM
- TGI (UACC-62 melanoma): > 100 µM
- TGI (HOP-62 NSCLC): > 100 µM
- TGI (SK-MEL-2 melanoma): > 100 µM
- TGI (BT-549 breast): > 100 µM
- TGI (SK-OV-3 ovarian): > 100 µM
- TGI (HCT-116 colon): > 100 µM
- TGI (NCI-H23 lung): > 100 µM
- TGI (OVCAR-3 ovarian): > 100 µM
- TGI (HCC-2998 colon): > 100 µM
- TGI (KM12 colon): > 100 µM
- TGI (MOLT-4 leukemia): > 100 µM
- TGI (DU-145 prostate): > 100 µM
- TGI (HOP-92 NSCLC): > 100 µM
- TGI (SF-268 CNS): > 100 µM
- TGI (UO-31 renal): > 100 µM
- TGI (NCI/ADR-RES ovarian): > 100 µM
- TGI (OVCAR-8 ovarian): > 100 µM
- TGI (A549 NSCLC): > 100 µM
- TGI (M14 melanoma): > 100 µM
- TGI (U251 CNS): > 100 µM
- TGI (MCF7 breast): > 100 µM
- TGI (SW-620 colon): > 100 µM
- TGI (SNB-19 CNS): > 100 µM
- TGI (MDA-MB-231 breast): > 100 µM
- TGI (RXF 393 renal): > 100 µM
- TGI (CCRF-CEM leukemia): > 100 µM
- TGI (T-47D breast): > 100 µM
- TGI (CAKI-1 renal): > 100 µM
- TGI (SF-539 CNS): > 100 µM

Structure (SMILES): CN(CCCN=C=S)CCCN1c2ccccc2CCc2ccccc21
- TGI (K-562 leukemia): > 100 µM
- TGI (SK-MEL-5 melanoma): 3.43 µM
- TGI (UACC-257 melanoma): 3.85 µM
- TGI (HCT-15 colon): 2.9 µM
- TGI (MDA-MB-435): 3.27 µM
- TGI (NCI-H460 lung): 3.45 µM
- TGI (OVCAR-4 ovarian): 3.56 µM
- TGI (TK-10 renal): 3.26 µM
- TGI (HS 578T breast): 4.03 µM
- TGI (OVCAR-5 ovarian): 3.35 µM
- TGI (HT29 colon): 2.94 µM
- TGI (SN12C renal): 3.17 µM
- TGI (A498 renal): 3.07 µM
- TGI (ACHN renal): 3.12 µM
- TGI (786-0 renal): 3.08 µM
- TGI (MALME-3M melanoma): 3.48 µM
- TGI (MDA-N): 3.16 µM
- TGI (UACC-62 melanoma): 3.2 µM
- TGI (SK-MEL-2 melanoma): 3.38 µM
- TGI (SK-OV-3 ovarian): 3.16 µM
- TGI (HCT-116 colon): 3.09 µM
- TGI (NCI-H23 lung): 3.11 µM
- TGI (OVCAR-3 ovarian): 3.14 µM
- TGI (HCC-2998 colon): 2.69 µM
- TGI (KM12 colon): 3.5 µM
- TGI (MOLT-4 leukemia): > 100 µM
- TGI (DU-145 prostate): 3.22 µM
- TGI (HOP-92 NSCLC): 4.29 µM
- TGI (SF-268 CNS): 3.24 µM
- TGI (UO-31 renal): 3 µM
- TGI (NCI/ADR-RES ovarian): 2.67 µM
- TGI (OVCAR-8 ovarian): 3.43 µM
- TGI (A549 NSCLC): 3.16 µM
- TGI (M14 melanoma): 3.16 µM
- TGI (U251 CNS): 3.26 µM
- TGI (SNB-19 CNS): 3.14 µM
- TGI (MDA-MB-231 breast): 3.29 µM
- TGI (RXF 393 renal): 3.39 µM
- TGI (CCRF-CEM leukemia): > 100 µM
- TGI (T-47D breast): 3.92 µM
- TGI (CAKI-1 renal): 3.21 µM
- TGI (SF-539 CNS): 3.46 µM

Structure (SMILES): C[C@H]1[C@H](N2CCCC2)O[Si](C(C)(C)C)(C(C)(C)C)[C@@H]1C
- TGI (K-562 leukemia): > 100 µM
- TGI (SK-MEL-5 melanoma): > 100 µM
- TGI (UACC-257 melanoma): > 100 µM
- TGI (HCT-15 colon): > 100 µM
- TGI (RPMI-8226 leukemia): > 100 µM
- TGI (MDA-MB-435): > 100 µM
- TGI (SNB-75 CNS): > 100 µM
- TGI (SF-295 CNS): > 100 µM
- TGI (SK-MEL-28 melanoma): > 100 µM
- TGI (OVCAR-4 ovarian): > 100 µM
- TGI (TK-10 renal): > 100 µM
- TGI (OVCAR-5 ovarian): > 100 µM
- TGI (HT29 colon): > 100 µM
- TGI (SN12C renal): > 100 µM
- TGI (EKVX NSCLC): > 100 µM
- TGI (A498 renal): > 100 µM
- TGI (ACHN renal): > 100 µM
- TGI (PC-3 prostate): > 100 µM
- TGI (HL-60(TB) leukemia): 48.5 µM
- TGI (NCI-H522 lung): > 100 µM
- TGI (COLO 205 colon): > 100 µM
- TGI (786-0 renal): > 100 µM
- TGI (MALME-3M melanoma): > 100 µM
- TGI (MDA-N): > 100 µM
- TGI (UACC-62 melanoma): > 100 µM
- TGI (HOP-62 NSCLC): > 100 µM
- TGI (SK-MEL-2 melanoma): > 100 µM
- TGI (BT-549 breast): > 100 µM
- TGI (SK-OV-3 ovarian): > 100 µM
- TGI (HCT-116 colon): > 100 µM
- TGI (NCI-H23 lung): > 100 µM
- TGI (OVCAR-3 ovarian): > 100 µM
- TGI (HCC-2998 colon): > 100 µM
- TGI (KM12 colon): > 100 µM
- TGI (IGROV1 ovarian): > 100 µM
- TGI (MOLT-4 leukemia): > 100 µM
- TGI (HOP-92 NSCLC): 4.7 µM
- TGI (UO-31 renal): > 100 µM
- TGI (NCI/ADR-RES ovarian): > 100 µM
- TGI (LOX IMVI melanoma): > 100 µM
- TGI (OVCAR-8 ovarian): > 100 µM
- TGI (A549 NSCLC): > 100 µM
- TGI (M14 melanoma): > 100 µM
- TGI (U251 CNS): > 100 µM
- TGI (MCF7 breast): > 100 µM
- TGI (SW-620 colon): > 100 µM
- TGI (SNB-19 CNS): > 100 µM
- TGI (MDA-MB-231 breast): > 100 µM
- TGI (CCRF-CEM leukemia): > 100 µM
- TGI (T-47D breast): > 100 µM
- TGI (CAKI-1 renal): > 100 µM
- TGI (NCI-H226 lung): > 100 µM
- TGI (SF-539 CNS): > 100 µM
